From PMC12144419, “Early preclinical development of Mycobacteriumtuberculosis amino acid biosynthesis pathway inhibitor DRILS-1398 as a potential anti-TB drug” (iScience, 2025)
Where “and” joins values, the source holds several entries; their conditions need not be identical. Equal values may be shown once. Entries after “also recorded” stand apart in the source; their conditions may differ. Read-outs that look alike come from different tables or passages of the source.

Key:
[1] = system: M.tb-CM; design: method as in doi:10.1039/C1MD00148E; conditions: read-out: IC50, inhibition of M.tb-CM; cited from earlier work
[2] = system: M.tb H37Rv; assay: Histopathology (H&E, ZN stain) of lungs of infected mice; conditions: for Granuloma in the lung: DRILS-1398 and DRILS-1398(F) 30 mg/kg, isoniazid 5 mg/kg; for Acid-fast bacilli load in lung, ZN staining: vs infected mice without drug
[3] = system: intracellular MDR-M.tb H37Rv (ATCC 35825) in activated THP-1 macrophages; assay: Intracellular efficacy THP-1 macrophage assay, MDR-M.tb ATCC 35825; assay type: cell-based, Mycobacterium tuberculosis; conditions: for cfu reduction vs day 7 control, combination study: Fig 4E, DRILS-1398 15 μM, rifampicin 19.45 μM, alone or combined
[4] = system: intracellular M.tb H37Rv (ATCC 27294) in activated THP-1 macrophages; assay: Intracellular efficacy THP-1 macrophage assay, M.tb H37Rv ATCC 27294; conditions: for cfu reduction vs day 3 control, combination study / cfu reduction vs day 7 control, combination study: Fig 4D, DRILS-1398 15 μM, rifampicin 19.45 μM, alone or combined
Experimental: The THP-1 cells were activated with PMA (phorbol 12-myristate-13-acetate) for differentiation into macrophages. After 72 hr of activation, the THP-1 macrophages were infected with M.tb H37Rv strain (ATCC-27294 and ATCC-35825) at a multiplicity of infection (MOI) of 1:10.[34]^,[35] The macrophage infection was allowed for 2 hrs at 37°C with 5% CO2. The media containing M.tb was discarded, and macrophage monolayers were washed twice with phosphate-buffered saline to remove the extracellular bacteria and replenished with fresh, complete RPMI. The M.tb-infected macrophages were exposed to compounds by transferring 200 μL of fresh media containing the respective concentrations of the compounds. Duplicate wells were lysed (0.05% SDS) at specific time points and enumerated to estimate the numbers of intracellular M.tb 2 hr post-infection. The 0.1 mL of lysate was serially diluted and plated onto Middle brook 7H11 agar plates for enumeration (read after 3 to 4 weeks) of live M.tb after compound treatment. After 3 and 7 day exposure to the compounds, the cells were treated the same way, and the live M.tb was enumerated. The efficacy of the test compound was assessed by comparing the M.tb counts from the respective days to day 0 and day 7.

[5] = target: M.tb chorismate mutase (M.tb-CM) (Mycobacterium tuberculosis, UniProt P9WIB9); assay: CM assay (in vitro substrate competition enzymatic assay, chorismate to prephenate, OD 274 nm); assay type: biochemical
Sequence of M.tb chorismate mutase (M.tb-CM) (P9WIB9 34-199): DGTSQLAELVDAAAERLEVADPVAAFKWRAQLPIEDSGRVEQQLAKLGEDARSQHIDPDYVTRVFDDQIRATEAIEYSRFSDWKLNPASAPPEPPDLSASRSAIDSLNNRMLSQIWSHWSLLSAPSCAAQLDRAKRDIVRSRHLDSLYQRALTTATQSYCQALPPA
Experimental: The activity of the CM enzyme was based on direct observation of the conversion of chorismate to prephenate at OD 274 nm.[32] The reaction volume of the assay was maintained at 100 μl. 1mM of the substrate, chorismic acid (Sigma) was pre-incubated at 37°C for 5 min in the buffer (containing 50mM Tris-HCl (pH 7.5), 0.5mM EDTA, 0.1 mg/mL bovine serum albumin, and 10 mM β-Mercaptoethanol). The reaction was started by adding 180 pmol of CM enzyme to the prewarmed chorismic acid solution. Inhibitory screening of the compounds against CM activity was measured at 100 nM to 50 μM concentration of the effectors. The reaction was allowed to proceed at 37°C and was terminated after 5 min with 100 μl of 1 N HCl. Disappearance of substrate was measured at 274 nm. A blank with no enzyme for every reaction was kept as a control to account for the non-enzymatic conversion of chorismate to prephenate.

[6] = system: M.tb H37Rv cells; assay: In vitro amino acid supplementation (rescue) growth experiment; assay type: cell-based, Mycobacterium tuberculosis; conditions: amino acid 100 μg/mL
[7] = system: MDR-M.tb ATCC 35825; assay: Broth dilution MIC by turbidometry; assay type: cell-based; conditions: Mycobacterium tuberculosis, ATCC35825
[8] = system: M.tb. ATCC-27294 strain; assay: MIC against M.tb ATCC-27294; assay type: cell-based; conditions: Mycobacterium tuberculosis, ATCC27294
[9] = in vitro; assay type: in vitro ADME; conditions: mouse, plasma
Experimental: DRILS-1398 (5μM) was added to both sides of the membrane in an equilibrium dialysis system. Species-specific plasma (50% or 100%) was added to one side, and the system was allowed to reach equilibrium at 37 °C. LC-MS/MS measurements of compound concentration were performed on both sides of the membrane and the fraction of unbound compound was presented.[52]

[10] = Single-dose oral pharmacokinetics in male BALB/c mice; conditions: mouse, in vivo
Experimental: Male BALB/c mice aged 8-9 weeks were used for experimentation after a minimum of 3 days of acclimatization.[38]^,[39]^,[40] Fasted animals were administered with DRILS-1398 or DRILS-1398 (F) in a recommended vehicle (1%(v/v) Tween 80 + 99% (v/v) of 0.5% (w/v) Carboxymethylcellulose sodium salt in ultrapure water) by oral route with a dose of 50 mg/kg body weight of DRILS-1398 or 10 mg/kg and 30 mg/kg for DRILS-1398(F) at a dose volume of 10 mL/kg b.w. Under mild isoflurane anesthesia, a blood specimen was collected into pre-labeled tubes containing anticoagulant (K2EDTA - 2 mg/mL blood) during the next 24 hours of post-dose (Table-PK study design chart). The collected blood specimens were centrifuged at 6000 rpm, 4°C for 10 min, and plasma was separated and stored at -80°C until analysis. […] Concentrations of analyte DRILS-1398 in mice plasma samples were determined using the Shimadzu LCMS-8045 LC-MS/MS system. The protocols were approved by the Institutional Animal Ethics Committee of the Preclinical Research Department, Anthem Biosciences Pvt. Ltd., Bangalore 560099, India (Study no for 50mg/kg PK study: N20084, (ABD/IASE/PR/185/19-22) and the study no for PK studies for 10mg/kg and 30mg/kg of DRILS-1398(F): ABD-8056 and ABD-7967A (ABD/IAEC/PR/89-17-20) respectively.

[11] = Single-dose IV pharmacokinetics in male BALB/c mice; assay type: in vivo; conditions: mouse, 10 mg/kg
Experimental: The intravenous (IV) (10 mg/kg of DRILS-1398) dosing study on BALB/c male mice (n=3 per time point, not more than 2 bleeds per animal, total animals dosed n=12) was carried out on the following time points through saphenous veins; IV: 15 mins, 30 mins, 1, 2, 4, 6, 8 and 24 hr. Collected blood specimens were centrifuged at 6000rpm, 4°C for 10 minutes, and plasma was separated and stored at -80°C until analysis. […] Concentrations of analyte DRILS-1398 in mice plasma samples were determined using the Shimadzu LCMS-8045 LC-MS/MS system. The protocol was approved by the Institutional Animal Ethics Committee of the Preclinical Research Department, Anthem Biosciences Pvt. Ltd., Bangalore 560099, India (protocol number for 10 mg/kg IV PK study: ABD-7967B (ABD/IAEC/PR/89-17-20).

[12] = Repeated dose 7-day toxicity study; assay type: in vivo, BALB/c mice
Experimental: As per the guideline,[58]^,[59] 40 males and 40 females were assigned into four groups of ten animals/sex per group viz., Vehicle control (G1), Low dose (G2), Mid Dose (G3) and High dose (G4). The test item formulations were prepared freshly in Ultra-pure water type 1 as a vehicle. The vehicle alone was administered to the vehicle control (G1) animals. Test item formulations were administered daily once at dose levels of 125 (G2), 250 (G3) and 500 (G4) mg/kg b.w./day. All the animals were administered a dose volume of 10 mL/kg b.w. once daily for 7 consecutive days. All the animals were observed once daily for clinical signs, twice daily for mortality/morbidity, and on day 7 for detailed clinical examination. Body weights and feed consumption were recorded at weekly intervals. At the end of the experimental period (day 8), blood and harvested plasma specimens were analyzed for haematology and clinical chemistry parameters, respectively. Subsequently, the animals were euthanized and subjected to gross pathological examination. The specified organs were collected and preserved in 10% NBF for histopathological evaluation. The protocol was approved by the Institutional Animal Ethics Committee of the Preclinical Research Department, Anthem Biosciences Pvt. Ltd., Bangalore 560099, India. Study no: N23041 (ABD/IAEC/PR/296-23-24).

[13] = microsomes; for Mouse microsomal stability: 3 µM
[14] = physchem
[15] = target: CYP 2C9 (Homo sapiens, UniProt P11712); assay: biochemical
Sequence of CYP 2C9 (P11712 whole entry): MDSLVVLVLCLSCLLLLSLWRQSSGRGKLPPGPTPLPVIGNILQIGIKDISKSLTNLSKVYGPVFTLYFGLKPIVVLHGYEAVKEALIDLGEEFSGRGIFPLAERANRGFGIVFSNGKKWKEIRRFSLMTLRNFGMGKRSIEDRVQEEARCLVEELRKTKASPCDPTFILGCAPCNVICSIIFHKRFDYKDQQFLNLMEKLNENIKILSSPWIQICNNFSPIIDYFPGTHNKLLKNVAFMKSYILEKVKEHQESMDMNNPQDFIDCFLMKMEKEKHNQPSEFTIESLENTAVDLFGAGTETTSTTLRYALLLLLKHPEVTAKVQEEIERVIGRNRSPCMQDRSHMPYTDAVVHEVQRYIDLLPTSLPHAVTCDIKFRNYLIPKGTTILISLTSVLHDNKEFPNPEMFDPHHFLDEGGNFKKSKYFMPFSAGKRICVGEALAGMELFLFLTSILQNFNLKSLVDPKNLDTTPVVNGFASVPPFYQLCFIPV
Experimental: (§1) This study performed CYP inhibition assay using Vivid CYP P450 (1A2, 2C9, 2C19, 2D6, and 3A4) blue screening kits.[56] […] The fluorescent reading was taken using a microplate reader at excitation/emission wavelengths of 415/460 nm, respectively. The % of CYP inhibition of test/positive control at each tested concentration was calculated, and the IC50 value against each CYP isoform was plotted using Graph pad prism software.

[16] = target: CYP 2C19 (Homo sapiens, UniProt P33261); assay: biochemical
Sequence of CYP 2C19 (P33261 whole entry): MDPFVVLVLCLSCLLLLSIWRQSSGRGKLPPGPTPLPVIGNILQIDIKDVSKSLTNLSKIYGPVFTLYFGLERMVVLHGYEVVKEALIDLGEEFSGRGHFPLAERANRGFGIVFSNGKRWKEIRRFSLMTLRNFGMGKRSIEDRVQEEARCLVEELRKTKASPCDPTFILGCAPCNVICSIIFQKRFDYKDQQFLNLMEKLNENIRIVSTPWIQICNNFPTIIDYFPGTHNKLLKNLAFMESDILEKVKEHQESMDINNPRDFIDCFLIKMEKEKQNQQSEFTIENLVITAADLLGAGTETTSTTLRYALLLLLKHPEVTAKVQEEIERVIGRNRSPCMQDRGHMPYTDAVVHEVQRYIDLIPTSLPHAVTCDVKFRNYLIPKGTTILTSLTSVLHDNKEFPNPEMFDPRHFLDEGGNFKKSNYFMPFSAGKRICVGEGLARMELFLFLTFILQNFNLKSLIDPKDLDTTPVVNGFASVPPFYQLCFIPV
Experimental: as §1

[17] = target: CYP 2D6 (Homo sapiens, UniProt P10635); assay: biochemical
Sequence of CYP 2D6 (P10635 whole entry): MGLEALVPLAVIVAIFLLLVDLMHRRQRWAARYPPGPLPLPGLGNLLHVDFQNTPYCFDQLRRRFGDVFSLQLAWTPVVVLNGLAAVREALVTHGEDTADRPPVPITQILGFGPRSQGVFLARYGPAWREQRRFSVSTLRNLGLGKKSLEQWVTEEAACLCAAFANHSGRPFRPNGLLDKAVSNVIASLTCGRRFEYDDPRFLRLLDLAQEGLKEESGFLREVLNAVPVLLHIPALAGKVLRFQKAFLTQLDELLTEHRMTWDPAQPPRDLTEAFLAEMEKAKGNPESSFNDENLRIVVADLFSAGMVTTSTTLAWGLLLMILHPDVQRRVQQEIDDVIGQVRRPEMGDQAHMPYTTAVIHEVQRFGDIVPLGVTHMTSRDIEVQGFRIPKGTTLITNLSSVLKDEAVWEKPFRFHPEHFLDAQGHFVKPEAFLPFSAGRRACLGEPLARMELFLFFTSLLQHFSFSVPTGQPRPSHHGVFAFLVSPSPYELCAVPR
Experimental: as §1

[18] = target: CYP 3A4 (Homo sapiens, UniProt P08684); assay: biochemical
Sequence of CYP 3A4 (P08684 whole entry): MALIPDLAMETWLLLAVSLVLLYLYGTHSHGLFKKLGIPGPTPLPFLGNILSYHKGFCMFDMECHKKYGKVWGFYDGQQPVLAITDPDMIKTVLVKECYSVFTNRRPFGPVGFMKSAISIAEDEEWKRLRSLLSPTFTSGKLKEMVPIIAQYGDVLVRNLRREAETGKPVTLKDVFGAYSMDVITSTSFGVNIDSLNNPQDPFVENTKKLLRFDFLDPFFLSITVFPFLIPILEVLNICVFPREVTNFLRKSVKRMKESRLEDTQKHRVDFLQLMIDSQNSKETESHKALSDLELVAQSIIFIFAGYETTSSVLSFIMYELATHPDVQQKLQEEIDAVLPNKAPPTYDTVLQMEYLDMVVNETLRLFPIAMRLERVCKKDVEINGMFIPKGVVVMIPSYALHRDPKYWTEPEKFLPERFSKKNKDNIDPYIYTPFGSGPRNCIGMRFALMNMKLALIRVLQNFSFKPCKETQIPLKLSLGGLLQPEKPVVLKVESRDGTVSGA
Experimental: as §1

[19] = system: Salmonella typhimurium TA98, TA100 and TA1537; assay: Bacterial reverse mutation test (Ames); conditions: 3000.0, 949.5, 300.0, 94.9 and 30.0 μg/plate, with and without rat liver S9
[20] = target: CYP 1A2 (Homo sapiens, UniProt P05177); assay: Vivid CYP inhibition, fluorescent substrate method
Sequence of CYP 1A2 (P05177 whole entry): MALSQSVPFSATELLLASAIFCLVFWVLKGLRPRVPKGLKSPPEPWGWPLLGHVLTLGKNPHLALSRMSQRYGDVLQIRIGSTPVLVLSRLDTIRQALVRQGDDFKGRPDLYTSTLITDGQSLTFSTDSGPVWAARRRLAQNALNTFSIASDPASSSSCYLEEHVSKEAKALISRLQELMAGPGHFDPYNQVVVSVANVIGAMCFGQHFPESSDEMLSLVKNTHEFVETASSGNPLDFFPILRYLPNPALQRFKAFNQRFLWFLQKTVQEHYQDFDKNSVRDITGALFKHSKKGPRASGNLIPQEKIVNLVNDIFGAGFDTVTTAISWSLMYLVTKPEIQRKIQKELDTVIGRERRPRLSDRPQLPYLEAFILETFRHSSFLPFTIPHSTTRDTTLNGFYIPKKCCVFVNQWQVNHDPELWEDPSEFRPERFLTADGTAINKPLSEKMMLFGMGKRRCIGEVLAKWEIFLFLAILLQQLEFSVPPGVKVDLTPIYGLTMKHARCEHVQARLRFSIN
Experimental: as §1

[21] = system: M.tb H37Rv; assay: In vivo efficacy study, M.tb H37Rv infected mice (CFU in lung and spleen); conditions: 10-50 mg/kg on alternate days for four weeks
[22] = Table S4, lung of infected treated mice
[23] = up to 500 mg/kg b.w./day, 7 days

SMILES: CS(=O)(=O)Nc1ccc(F)cc1-c1cc2cc(F)ccc2n1S(C)(=O)=O [B]
- IC50 [1]: ~17 µM

SMILES: NNC(=O)c1ccncc1 [Isoniazid, reference compound]
- Granuloma in the lung [2]: no signs of granuloma
- Granuloma [2, 22]: -
- ZN stain (Acid Fast Bacilli) [2, 22]: +
- Acid-fast bacilli load in lung, ZN staining [2]: minimal presence of bacilli

SMILES: CO[C@H]1/C=C/O[C@@]2(C)Oc3c(C)c(O)c4c(O)c(c(/C=N/N5CCN(C)CC5)c(O)c4c3C2=O)NC(=O)/C(C)=C\C=C\[C@H](C)[C@H](O)[C@@H](C)[C@@H](O)[C@@H](C)[C@H](OC(C)=O)[C@@H]1C [Rifampicin, reference compound]
- cfu reduction vs day 7 control, combination study ([3]; day 7): 1.96 log10 cfu/mL
- cfu reduction vs day 3 control, combination study ([4]; day 3): 1.26 log10 cfu/mL
- cfu reduction vs day 7 control, combination study ([4]; day 7): 2.28 log10 cfu/mL

SMILES: CCCc1nn(C)c2c(-c3c[nH]c4ccc(Cl)cc34)nc(-c3ccc(Cl)cc3)nc12 [DRILS-1398]
- IC50 ([5]; IC50, inhibition of M.tb-CM activity, n = 3): 3 µM and ~3 µM
- IC90 ([5]; read-out: IC90, inhibition of M.tb-CM activity): 10 µM
- Growth of M.tb H37Rv with compound, amino acids added after 24 h ([6]; 4 μg/mL compound, until 96 h): showed inhibitory effects up to 24 h
- Growth of M.tb H37Rv with compound and tyrosine or phenylalanine added at time 0 ([6]; ~10 μM compound, 24-96 h): amino acid supplementation rescued the cells from the inhibitory effects
- MIC [7]: 4 µg/mL and ~10 µM
- MIC ([8]; M.tb ATCC-27294): 6.53 µg/mL
- MIC ([8]; M.tb ATCC-27294, converted): ~15 µM
- cfu reduction vs day-3 control ([3]; Fig 4C, day 3, C1: DRILS-1398 15 μM, rifampicin 13.16 μM): 0.40 log10 cfu/mL
- cfu reduction vs day-7 control ([3]; Fig 4C, day 7, C1: DRILS-1398 15 μM, rifampicin 13.16 μM): 0.70 log10 cfu/mL
- cfu reduction vs day 7 control, combination study ([3]; day 7): 0.77 log10 cfu/mL
- fraction unbound at 5 µM [9]: ~0.0184
- AUC(0-inf) ([10]; male, BALB/c, po, 50 mg/kg): 21400 ng·h/mL
- AUCextrap ([10]; male, BALB/c, po, 50 mg/kg): 10.30%
- Cmax ([10]; male, BALB/c, po, 50 mg/kg): 1580 ng/mL
- MRT last ([10]; male, BALB/c, po, 50 mg/kg): 7.52 h
- Tmax ([10]; male, BALB/c, po, 50 mg/kg): 4 h
- AUC(0-t) ([10]; male, BALB/c, oral 50 mg/kg): 19200 ng·h/mL
- half-life ([10]; male, BALB/c, oral 50 mg/kg): 6.95 h
- Adverse clinical signs during PK treatment ([10]; po, 50 mg/kg): did not show any adverse clinical signs
- Approximate free drug concentration in blood plasma ([11]; in vivo): ~0.4 µM
- clearance ([11]; in vivo): 35 mL/min/kg
- half-life ([11]; plasma, IV 10 mg/kg): ~8.25 h
- Clinical signs of toxicity, mortality/morbidity ([12]; oral gavage up to 500 mg/kg b.w./day once daily for 7 days, both genders): no adverse clinical signs of toxicity and mortality/morbidity
- Effects on body weight, weight gain, feed consumption, hematological and clinical chemistry parameters [12, 23]: No treatment-related adverse effects
- Histopathological evaluation of examined tissues [12, 23]: no treatment-related adverse effects
- Mouse microsomal stability ([13]; 2 min): 56.45%
- Mouse microsomal stability ([13]; 5 min): 53.42%
- Mouse microsomal stability ([13]; 0.25 h): 42.18%
- Mouse microsomal stability ([13]; 0.75 h): 24.61%
- Mouse microsomal stability ([13]; 2 h): 26.57%
- Microsomal stability, verdict ([13]; mouse): moderately stable
- solubility [14]: ≥ 50 mg/mL
- IC50 [15]: 12.2 µM
- IC50 [16]: 13.7 µM
- IC50 [17]: > 30 µM
- IC50 [18]: > 30 µM
- Mutagenic potential [19]: did not show any mutagenic potential; also recorded: non-mutagenic
- IC50 [20]: > 30 µM
- Granuloma in the lung [2]: no signs of granuloma
- Granuloma [2, 22]: -
- Necrosis of the lung tissue ([2]; mouse, in vivo): not observed
- Acid-fast bacilli load in lung, ZN staining [2]: significant decrease in bacilli load
- cfu reduction vs day-3 control ([4]; Fig 4B, day 3, C1: DRILS-1398 15 μM, rifampicin 13.16 μM): 0.59 log10 cfu/mL
- cfu reduction vs day-7 control ([4]; Fig 4B, day 7, C1: DRILS-1398 15 μM, rifampicin 13.16 μM): 1.00 log10 cfu/mL
- cfu reduction vs day 3 control, combination study ([4]; day 3): 0.42 log10 cfu/mL
- cfu reduction vs day 7 control, combination study ([4]; day 7): 0.98 log10 cfu/mL
- Clearance of M.tb H37Rv infection in lungs and spleen (CFU) [21]: successful in clearing M.tb infection from the lungs and spleen; also recorded: effectively cleared
